Results: US6365590B1, “Compounds, compositions and methods for treating erectile dysfunction” (Saint Louis University, priority 1998, dated 2002)
Structures can show the parent of a compound that is named as a salt.

Key:
sperm = settings: cited from earlier work
[1] = pH of a 10 mM aqueous solution of the compound; format: physicochemical; settings: 22° C.
[2] = concentrations up to 20%; cited from earlier work

Compound | effect on the viability of sperm (sperm) | pH of a 10 mM aqueous solution [1] | further results
CCCCC[C@H](O)/C=C/[C@H]1[C@H](O)CC(=O)[C@@H]1CCCCCCC(=O)O [alprostadil] | no effect | – | –
CCCCC[C@H](O)/C=C/[C@H]1[C@H](O)CC(=O)[C@@H]1CCCCCCC(=O)O.CCN(CC)CC(=O)Nc1c(C)cccc1C [lidocaine alprostadilate] | – | 6.29-6.36 | –
COc1ccc(Cc2nccc3cc(OC)c(OC)cc23)cc1OC [papaverine] | – | – | effectiveness as a topical agent in erectile dysfunction [2]: not sufficiently effective for clinical use
CCCCCC(O)C=CC1C(O)CC(=O)C1CCCCCCC(=O)O.COc1cc2nc(N3CCN(C(=O)c4ccco4)CC3)nc(N)c2cc1OC [prazosin alprostadilate] | – | 6.32-6.38 | –
COc1cc2nc(N3CCN(C(=O)c4ccco4)CC3)nc(N)c2cc1OC [prazosin hydrochloride] | no effect | – | –
